In patent publication US20070191447A1, “Novel heterocyclic compound” (priority 2004, published 2007) one finds inhibition data, which are given here for twelve compounds.

The experiment addresses T1, benzodiazepine ω3 receptor (Rattus norvegicus, UniProt P16257).
T1 construct: The kidney membrane fraction (ω3) was prepared as follows; from tissue; host or cells: rat (SD, male) kidney membrane fraction
The experiment can be described thus: Benzodiazepine ω3 receptor binding inhibition test ([3H]-PK-11195, rat kidney membrane fraction). As to conditions: 1 h, compound final concentration 100 nM, [3H]-PK-11195 1 nM, 4° C., one hour, read-out: [3H]-PK-11195 Binding inhibitory rate (%). The method, then: Experiment 1: Benzodiazepine ω3 receptor and benzodiazepine ω1, ω2 receptors binding inhibition test
The benzodiazepine ω3 receptor binding assay was carried out according to the method disclosed in the literature (Mol. Phamacol., 34, 800-805, 1988), and the benzodiazepine ω1, ω2 receptor binding assays were carried out according to the method disclosed in the literature (Neurophamacol., 34, 1169-1175, 1995), respectively.
SD male rats (Japan Charles River) were decapitated, and the kidney and the cerebral cortex were collected. The kidney membrane fraction (ω3) was prepared as follows. The kidney was homogenized with ice-cold 50 mM Tris-HCl buffer (pH 7.6) of about 5-times volume of the wet tissue weight, and the homogenate was centrifuged at 4° C. for 10 minutes at 20,000 g. The pellets thus obtained were suspended again, and centrifuged at 4° C. for 10 minutes at 20,000 g. These resuspension and centrifugation procedures were repeated once more, and the obtained pellets were diluted in a 50 mM Tris-HCl buffer (pH 7.6) into a concentration of 0.1 mg of protein per one assay of the receptor binding test. The cerebral cortex membrane fraction (ω1 and ω2) was prepared as follows. The cerebral cortex was homogenized with ice-cold potassium phosphate buffer (200 mM KCl, 20 mM KOH, 20 mM KH2PO4, pH 7.4) of 15-times volume of the wet tissue weight, and the homogenate was centrifuged at 4° C. for 15 minutes at 32,500 g. The obtained pellets were suspended again and centrifuged at 4° C. for 15 minutes at 32,500 g. These resuspension and centrifugation procedures were repeated once more, and the obtained pellets were diluted in the potassium phosphate buffer into a concentration of 0.1 mg of protein per one assay of the receptor binding test. Both of these membrane fractions were frozen and stored at −80° C.
As the [^3H]-labeled ligand, [^3H]-PK-11195 (for ω3; PerkinElmer) or [^3H]-Ro-15-1788 [Flumazenil] (for ω1 and ω2; PerkinElmer) was used. […] In order to obtain total binding in the binding inhibition assay, a 0.5% DMSO, the [^3H] labeled ligand (final concentration: 1 nM), and the membrane fraction were mixed (total volume: 1 mL), and the mixture was incubated at 4° C. (for ω3) or at 25° C. (for ω1 and ω2) for one hour. In order to obtain non-specific binding, the non-labeled ligand (final concentration: 10 μM) was added instead of 0.5% DMSO, and in order to study the binding affinity of the present compounds, a solution of the present compound (final concentration: 100 nM for ω3, or 10 μM for ω1 and ω2) in DMSO was added. After the one-hour incubation, the labeled ligand bound to the receptor was collected by filtration with suction through a 0.3% polyethyleneimine-treated GF/B filter using a cell harvester, and washed with ice-cold 50 mM Tris-HCl buffer (for ω3) or ice-cold potassium phosphate buffer (for ω1 and ω2) once. The radioactivity on the GF/B filter was measured with liquid scintillation counter (manufactured by Packard, Tri Carb 2700TR). The results were expressed by the inhibition rate (%) against the binding to the labeled ligand.
For `CN(C(=O)Cn1c(=O)sc2ccc(Br)cc21)c1ccccc1` [Example 55], the inhibition at 0.1 µM was found to be 98%.
`CN(C(=O)Cn1c(=O)sc2c(Br)cccc21)c1ccccc1` [Example 56]: the inhibition at 0.1 µM amounted to 99%.
For the compound `CCCN(CCC)C(=O)Cn1c(=O)n(C)c2ccc(-c3ccccc3)cc21` [Example 60], the inhibition at 0.1 µM stood at 100%.
Under `CN(C(=O)Cn1c(=O)n(C)c2cc(-c3ccccc3)ccc21)c1ccccc1` [Example 61] stands 100%; under `CN(C(=O)Cn1c(=O)n2c3c(cccc31)CCC2)c1ccccc1` [Example 113, N-Methyl-2-(2-oxo-5,6-dihydro-4H-imidazo[4,5,1-ij]quinolin-1(2H)-yl)-N-phenylacetamide], 93%; under `CN(C(=O)Cn1c(=O)n2c3c(cc(Oc4ccccc4)cc31)CCC2)c1ccccc1` [Example 136, N-Methyl-2-(2-oxo-8-phenoxy-5,6-dihydro-4H-imidazo[4,5,1-ij]quinolin-1(2H)-yl)-N-phenylacetamide], 95%.
Under `CC(C(=O)N(C)c1ccccc1)n1c(=O)n2c3c(cc(Br)cc31)CCC2` (stereo not drawn) [Example 137, 2-(8-Bromo-2-oxo-5,6-dihydro-4H-imidazo[4,5,1-ij]quinolin-1(2H)-yl)-N-methyl-N-phenylpropanamide] stands 83%; under `CN(C(=O)C1CCc2cccc3c2n1c(=O)n3C)c1ccccc1` (stereo not drawn) [Example 142, N,1-Dimethyl-2-oxo-N-phenyl-1,2,5,6-tetrahydro-4H-imidazo[4,5,1-ij]quinoline-4-carboxamide], 83%.
Under `CN(C(=O)Cn1c(=O)oc2ccc(C(=O)c3ccccc3)cc21)c1ccccc1` [Example 373, 2-(5-Benzoyl-2-oxo-1,3-benzoxazol-3(2H) -yl)-N-methyl-N-phenyl-acetamide] stands 89%; under `CC(=O)c1cc(Br)cc2c1oc(=O)n2CC(=O)N(C)c1ccccc1` [Example 389, 2-(7-Acetyl-5-bromo-2-oxo-1,3-benzoxazol-3(2H)-yl)-N-methyl-N-phenyl-acetamide], 97%; under `CN(C(=O)Cn1c(=O)sc2ccc(-c3ccncc3)cc21)c1ccccc1` [Example 395, N-Methyl-2-(2-oxo-5-pyridin-4-yl-1,3-benzothiazol-3(2H)-yl)-N-phenyl-acetamide], 95%.
For `CC(C)n1c(=O)n(CC(=O)N(C)c2ccccc2)c2cc(-c3ccccc3)ccc21` [Example 401, 2-(3-Isopropyl-2-oxo-6-phenyl-2,3-dihydro-1H-benzimidazol-1-yl)-N-methyl-N-phenylacetamide], the inhibition at 0.1 µM is 88%.
